System: P12-Ichikawa
Assay: cell viability relative to DMSO control; higher = less cytotoxic
Conditions: 48 h
How it was run: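 Viability, reported as a per-plate percentage of DMSO wells with cell-free wells as background, came from CellTiter-Glo One luminescence. Reading took place after 48 h at 37°C. Before that, NOMO1 or SEM (500 cells/well) or P12-Ichikawa (1000 cells/well) leukemia cells, adapted for at least four passages in each medium, were seeded in 1536-well plates (5 μl) and pin-dosed with library compounds in DMSO, 47 μM to 0.79 nM over 11 threefold points.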

[1] = HPLM + 10% dialyzed FBS, 0.000781 µM
[2] = HPLM + 10% dialyzed FBS, 0.00234 µM
[3] = HPLM + 10% dialyzed FBS, 0.00702 µM
[4] = HPLM + 10% dialyzed FBS, 0.0211 µM
[5] = HPLM + 10% dialyzed FBS, 0.0632 µM
[6] = HPLM + 10% dialyzed FBS, 0.19 µM
[7] = HPLM + 10% dialyzed FBS, 0.569 µM
[8] = HPLM + 10% dialyzed FBS, 1.71 µM
[9] = HPLM + 10% dialyzed FBS, 5.12 µM
[10] = HPLM + 10% dialyzed FBS, 15.4 µM
[11] = HPLM + 10% dialyzed FBS, 46.1 µM
[12] = RPMI 5 mM glucose + 10% FBS, 0.000781 µM
[13] = RPMI 5 mM glucose + 10% FBS, 0.00234 µM
[14] = RPMI 5 mM glucose + 10% FBS, 0.00702 µM
[15] = RPMI 5 mM glucose + 10% FBS, 0.0211 µM
[16] = RPMI 5 mM glucose + 10% FBS, 0.0632 µM
[17] = RPMI 5 mM glucose + 10% FBS, 0.19 µM
[18] = RPMI 5 mM glucose + 10% FBS, 0.569 µM
[19] = RPMI 5 mM glucose + 10% FBS, 1.71 µM
[20] = RPMI 5 mM glucose + 10% FBS, 5.12 µM
[21] = RPMI 5 mM glucose + 10% FBS, 15.4 µM
[22] = RPMI 5 mM glucose + 10% FBS, 46.1 µM
[23] = RPMI 5 mM glucose + 10% dialyzed FBS, 0.000781 µM
[24] = RPMI 5 mM glucose + 10% dialyzed FBS, 0.00234 µM
[25] = RPMI 5 mM glucose + 10% dialyzed FBS, 0.00702 µM
[26] = RPMI 5 mM glucose + 10% dialyzed FBS, 0.0211 µM
[27] = RPMI 5 mM glucose + 10% dialyzed FBS, 0.0632 µM
[28] = RPMI 5 mM glucose + 10% dialyzed FBS, 0.19 µM
[29] = RPMI 5 mM glucose + 10% dialyzed FBS, 0.569 µM
[30] = RPMI 5 mM glucose + 10% dialyzed FBS, 1.71 µM
[31] = RPMI 5 mM glucose + 10% dialyzed FBS, 5.12 µM
[32] = RPMI 5 mM glucose + 10% dialyzed FBS, 15.4 µM
[33] = RPMI 5 mM glucose + 10% dialyzed FBS, 46.1 µM

Compound | cell viability [1] | cell viability [2] | cell viability [3] | cell viability [4] | cell viability [5] | cell viability [6] | cell viability [7] | cell viability [8] | cell viability [9] | cell viability [10] | cell viability [11] | cell viability [12] | cell viability [13] | cell viability [14] | cell viability [15] | cell viability [16] | cell viability [17] | cell viability [18] | cell viability [19] | cell viability [20] | cell viability [21] | cell viability [22] | cell viability [23] | cell viability [24] | cell viability [25] | cell viability [26] | cell viability [27] | cell viability [28] | cell viability [29] | cell viability [30] | cell viability [31] | cell viability [32] | cell viability [33]
OCc1ccc(-c2nn(Cc3ccccc3)c3ccccc23)o1 | 118% | 109% | 103% | 107% | 113% | 108% | 104% | 93.8% | 96.5% | 105% | 73.7% | 117% | 119% | 128% | 126% | 113% | 115% | 117% | 104% | 116% | 113% | 60.9% | 109% | 110% | 108% | 112% | 100% | 108% | 113% | 103% | 102% | 98.9% | 49.5%
CC(C)Nc1cc(C(F)(F)F)cc2nc(NC(=O)c3cccnc3)nn12 | 113% | 115% | 117% | 116% | 108% | 107% | 108% | 10.1% | 12.6% | 14.6% | 33.5% | – | – | – | – | – | – | – | – | – | – | – | 121% | 115% | 113% | 113% | 116% | 114% | 111% | 28.2% | 24.1% | 24.9% | 37%
CC(C)n1nc(-c2ccc3oc(N)nc3c2)c2c(N)ncnc21 | 95.5% | 91% | 86.3% | 79.7% | 78% | 75% | 68.7% | 67.2% | 66.7% | 59.9% | 44.5% | 74.4% | 71.5% | 64.1% | 61.5% | 52% | 54.4% | 51% | 46.8% | 41.4% | 37.2% | 31.3% | 82.5% | 78.9% | 67.1% | 59.1% | 61.7% | 53.8% | 45% | 47.3% | 41.5% | 35.6% | 32%
CC(=O)CC(C1=CC=CC=C1)C/2=C(O)/C3=CC=CC=C3OC2=O (stereo unspecified) | 106% | 112% | 108% | 117% | 111% | 125% | 123% | 120% | 113% | 118% | 123% | 105% | 120% | 130% | 128% | 130% | 132% | 132% | 127% | 128% | 132% | 124% | 106% | 122% | 116% | 125% | 128% | 127% | 125% | 121% | 132% | 132% | 129%

Source: the supplement of paper PMC11451515
